Experimental data published in US9175007B2, “IRAK inhibitors and uses thereof” (Nimbus Iris, Inc., priority 2013, dated 2015).
pIC50: −log10 of the molar value. Where a name gives a salt, the structure may show the parent alone.

Target: T1, IRAK4 (Homo sapiens, UniProt Q9NWZ3)
T1 construct: purchased CARNA Bioscience 09-145
T1 sequence (Q9NWZ3 1-460): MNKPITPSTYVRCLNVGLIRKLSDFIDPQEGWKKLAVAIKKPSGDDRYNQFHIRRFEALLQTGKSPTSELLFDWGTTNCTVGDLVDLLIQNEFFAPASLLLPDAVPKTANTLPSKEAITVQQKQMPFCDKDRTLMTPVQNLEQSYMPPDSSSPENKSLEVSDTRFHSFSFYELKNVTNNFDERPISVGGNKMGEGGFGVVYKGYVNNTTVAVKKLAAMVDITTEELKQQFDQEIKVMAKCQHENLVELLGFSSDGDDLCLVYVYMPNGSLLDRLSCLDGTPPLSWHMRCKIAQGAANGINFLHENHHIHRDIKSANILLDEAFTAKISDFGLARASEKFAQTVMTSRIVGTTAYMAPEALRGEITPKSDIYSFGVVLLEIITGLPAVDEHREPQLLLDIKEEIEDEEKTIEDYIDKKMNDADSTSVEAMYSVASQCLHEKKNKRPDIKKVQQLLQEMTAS
Experiment: IRAK-4 activity inhibition assay (Caliper)
Assay type: biochemical
Conditions: 3.5 nM IRAK4, 37 μM ATP, 1.5 μM Peptide 8
Protocol: A 1× kinase base buffer was prepared from 50 mM HEPES, pH 7.5 and 0.0015% Brij-35. A stop buffer was prepared from 100 mM HEPES, pH 7.5, 0.015% Brij-35, 0.2% Coating Reagent #3, and 50 mM EDTA.
Test compound was diluted to 50× of the final desired highest inhibitor concentration in reaction by 100% DMSO. 100 ul of this compound dilution was transferred to a well in a 96-well plate.
Test compound was serially diluted by transferring 30 μl to 60 μl of 100% DMSO in the next well and so forth for a total of 10 concentrations. 100 μl of 100% DMSO was added to two empty wells for no compound control and no enzyme control in the same 96-well plate.
A new 96-well plate was marked as intermediate plate. 5 μl of compound serial dilution was transferred from source plate to the corresponding wells of the intermediate plate. 45 μl of 1× kinase base buffer (KB buffer) was added to each well of the intermediate plate. The intermediate plate was placed for 10 min on a shaker.
5 μl of each well was transferred from the 96-well intermediate plate to a 384-well plate in duplicates. For example, A1 of the 96-well plate is transferred to A1 and A2 of the 384-well plate. A2 of the 96-well plate is transferred to A3 and A4 of the 384-well plate, and so on.
IRAK4 and DTT in 1× kinase base buffer was added. The 2.5× enzyme mix contained 8.8 nM IRAK4 and 5 mM DTT.
Peptide 8, ATP, MgCl2 and MnCl2 were added in the 1× kinase base buffer. The 2.5× peptide mix contained 3.75 μM peptide 8, 92.5 μM ATP, 12.5 mM MgCl2 and 2.5 mM MnCl2.
Assay plate already contained 5 μl of compound in 10% DMSO. Added 10 μl of 2.5× enzyme solution to each well of the 384-well assay plate, except no enzyme control wells. The final concentration of IRAK4 in reaction was 3.5 nM. Added 10 μl of 1× kinase base buffer to no enzyme control wells in the assay plate. Incubated at room temperature for 10 min.
Added 10 μl of 2.5× peptide solution to each well of the 384-well assay plate. The final concentration of Peptide 8 and ATP was 1.5 μM and 37 μM, respectively. Incubated at 28° C. for 40 minutes. Added 25 μl of stop buffer to stop reaction. Collected data on Caliper.
Copied conversion % data from Caliper program. Converted conversion % values to percent inhibition values. Percent inhibition=(max-conversion %)/(max-min)*100, where “max” means the conversion % of DMSO control and “min” means the conversion % of no enzyme control.

Row | pIC50 | Structure (SMILES)
1 | ≥ 5.30 | CN(C)[C@H]1CC[C@H](Oc2nc(Nc3ccccc3)nc3sc4c(c23)C(CC(N)=O)CC4)CC1 (stereo partly drawn) [Compound I-17, 2-(12-[[4-(dimethylamino)cyclohexyl]oxy]-10-(phenylamino)-7-thia-9,11-diazatricyclo[6.4.0.0^[2,6]]dodeca-1(12),2(6),8,10-tetraen-3-yl)acetamide]
2 | ≥ 5.30 | CN(C)[C@H]1CC[C@H](Oc2nc(Nc3ccc(N4CCNCC4)cc3)nc3sc4c(c23)C(CC(N)=O)CC4)CC1 (stereo partly drawn) [Compound I-18, 2-(12-[[4-(dimethylamino)cyclohexyl]oxy]-10-[[4-(piperazin-1-yl)phenyl]amino]-7-thia-9,11-diazatricyclo[6.4.0.0[2,6]]dodeca-1(12),2(6),8,10-tetraen-3-yl)acetamide]
3 | ≥ 5.30 | Cc1cccc(Nc2nc(N[C@H]3CC[C@H](N4CCOCC4)CC3)c3c4c(sc3n2)CCC4)c1 [Compound I-4, N4-((1r,4r)-4-morpholinocyclohexyl)-N2-(m-tolyl)-6,7-dihydro-5H-cyclopenta[4,5]thieno[2,3-d]pyrimidine-2,4-diamine]
4 | 4.30 to 4.70 | Cc1ccc(Nc2nc(N[C@H]3CC[C@H](N4CCOCC4)CC3)c3c4c(sc3n2)CCC4)cc1 [Compound I-6, N4-((1r,4r)-4-morpholinocyclohexyl)-N2-(p-tolyl)-6,7-dihydro-5H-cyclopenta[4,5]thieno[2,3-d]pyrimidine-2,4-diamine]
5 | ≥ 5.30 | CN(C)[C@H]1CC[C@H](Oc2nc(Nc3ccc(N4CCNCC4)cc3)nc3sc4c(c23)CCC4)CC1 [Compound I-13, 12-[[4-(dimethylamino)cyclohexyl]oxy]-N-[4-(piperazin-1-yl)phenyl]-7-thia-9,11-diazatricyclo[6.4.0.0[2,6]]dodeca-1(8),2(6),9,11-tetraen-10-amine]
6 | ≥ 5.30 | Cn1cc(Nc2nc(NC3CCCCC3)c3c4c(sc3n2)CCC4)cn1 [Compound I-15, 12-N-cyclohexyl-10-N-(1-methyl-1H-pyrazol-4-yl)-7-thia-9,11-diazatricyclo[6.4.0.0[2,6]]dodeca-1(8),2(6),9,11-tetraene-10,12-diamine]
7 | ≥ 5.30 | c1ccc(Nc2nc(N[C@H]3CC[C@H](N4CCOCC4)CC3)c3c4c(sc3n2)CCC4)cc1 [Compound I-1, N4-((1r,4r)-4-morpholinocyclohexyl)-N2-phenyl-6,7-dihydro-5H-cyclopenta[4,5]thieno[2,3-d]pyrimidine-2,4-diamine]
8 | 4.30 to 4.70 | c1c[nH]c(Nc2nc(N[C@H]3CC[C@H](N4CCOCC4)CC3)c3c4c(sc3n2)CCC4)n1 [Compound I-11, 10-N-(1H-imidazol-2-yl)-12-N-[4-(morpholin-4-yl)cyclohexyl]-7-thia-9,11-diazatricyclo[6.4.0.0[2,6]]dodeca-1(8),2(6),9,11-tetraene-10,12-diamine]
9 | ≥ 5.30 | CN1CCC(c2ccc(Nc3nc(N[C@H]4CC[C@H](N(C)C)CC4)c4c5c(sc4n3)CCC5)cc2)CC1 [Compound I-67, N4-((1r,4r)-4-(dimethylamino)cyclohexyl)-N2-(4-(1-methylpiperidin-4-yl)phenyl)-6,7-dihydro-5H-cyclopenta[4,5]thieno[2,3-d]pyrimidine-2,4-diamine]
10 | 4.30 to 4.70 | c1c[nH]c(Nc2nc(N[C@H]3CC[C@H](N4CCOCC4)CC3)c3c4c(sc3n2)CCCC4)n1 [Compound I-12, 5-N-(1H-imidazol-2-yl)-3-N-[4-(morpholin-4-yl)cyclohexyl]-8-thia-4,6-diazatricyclo[7.4.0.0[2,7]]trideca-1(9),2(7),3,5-tetraene-3,5-diamine]
11 | ≥ 5.30 | CN(C)[C@H]1CC[C@H](Oc2nc(Nc3ccccc3)nc3sc4c(c23)CCC4)CC1 [Compound I-2, 12-[[4-(dimethylamino)cyclohexyl]oxy]-N-phenyl-7-thia-9,11-diazatricyclo[6.4.0.0[2,6]]dodeca-1(8),2(6),9,11-tetraen-10-amine]
12 | ≥ 5.30 | CN1CCN(c2ccc(Nc3nc(O[C@H]4CC[C@H](N(C)C)CC4)c4c5c(sc4n3)CCC5)cc2)CC1 [Compound I-68, 12-[[4-(dimethylamino)cyclohexyl]oxy]-N-[4-(4-methylpiperazin-1-yl)phenyl]-7-thia-9,11-diazatricyclo[6.4.0.0[2,6]]dodeca-1(8),2(6),9,11-tetraen-10-amine]
13 | ≥ 5.30 | Cn1cc(Nc2nc(O[C@H]3CC[C@H](N(C)C)CC3)c3c4c(sc3n2)CC[C@H]4CC(N)=O)cn1 [Compound I-21, 2-[(3S)-12-[[4-(dimethylamino)cyclohexyl]oxy]-10-[(1-methyl-1H-pyrazol-4-yl)amino]-7-thia-9,11-diazatricyclo[6.4.0.0[2,6]]dodeca-1(8),2(6),9,11-tetraen-3-yl]acetamide]
14 | ≥ 5.30 | Cn1cc(Nc2nc(N[C@H]3CC[C@H](O)CC3)c3c4c(sc3n2)CCC4)cn1 [Compound I-16, 4-([10-[(1-methyl-1H-pyrazol-4-yl)amino]-7-thia-9,11-diazatricyclo[6.4.0.0[2,6]]dodeca-1(8),2(6),9,11-tetraen-12-yl]amino)cyclohexan-1-ol]
15 | 4.70 to 5.30 | c1coc(Nc2nc(N[C@H]3CC[C@H](N4CCOCC4)CC3)c3c4c(sc3n2)CCCC4)n1 [Compound I-8, 3-N-[4-(morpholin-4-yl)cyclohexyl]-5-N-(1,3-oxazol-2-yl)-8-thia-4,6-diazatricyclo[7.4.0.0[2,7]]trideca-1(9),2(7),3,5-tetraene-3,5-diamine]
16 | ≥ 5.30 | c1ccc(Nc2nc(N[C@H]3CC[C@H](N4CCOCC4)CC3)c3c4c(sc3n2)CCCC4)cc1 [Compound I-7, 3-N-[4-(morpholin-4-yl)cyclohexyl]-5-N-phenyl-8-thia-4,6-diazatricyclo[7.4.0.0[2,7]]trideca-1(9),2,4,6-tetraene-3,5-diamine]
17 | ≥ 5.30 | CN(C)[C@H]1CC[C@H](Nc2nc(Nc3ccc(C4CCNCC4)cc3)nc3sc4c(c23)CCC4)CC1 [Compound I-71, 12-N-[4-(dimethylamino)cyclohexyl]-10-N-[4-(piperidin-4-yl)phenyl]-7-thia-9,11-diazatricyclo[6.4.0.0[2,6]]dodeca-1(8),2(6),9,11-tetraene-10,12-diamine hydrochloride]
18 | ≥ 5.30 | Cn1cc(Nc2nc(O[C@H]3CC[C@H](N(C)C)CC3)c3c4c(sc3n2)CCC4CC(N)=O)cn1 (stereo partly drawn) [Compound I-20, 2-(12-[[4-(dimethylamino)cyclohexyl]oxy]-10-[(1-methyl-1H-pyrazol-4-yl)amino]-7-thia-9,11-diazatricyclo[6.4.0.0[2,6]]dodeca-1(8),2(6),9,11-tetraen-3-yl)acetamide]
19 | ≥ 5.30 | CN1CCN(c2ccc(Nc3nc(N[C@H]4CC[C@H](N(C)C)CC4)c4c5c(sc4n3)CCC5)cc2)CC1 [Compound I-69, 12-N-[4-(dimethylamino)cyclohexyl]-10-N-[4-(4-methylpiperazin-1-yl)phenyl]-7-thia-9,11-diazatricyclo[6.4.0.0[2,6]]dodeca-1(8),2(6),9,11-tetraene-10,12-diamine]
20 | ≥ 5.30 | COc1cccc(Nc2nc(N[C@H]3CC[C@H](N4CCOCC4)CC3)c3c4c(sc3n2)CCC4)c1 [Compound I-5, 10-N-(3-methoxyphenyl)-12-N-[4-(morpholin-4-yl)cyclohexyl]-7-thia-9,11-diazatricyclo[6.4.0.0^[2,6]]dodeca-1(8),2(6),9,11-tetraene-10,12-diamine]
21 | ≥ 5.30 | c1cc(C2CCNCC2)ccc1Nc1nc(N[C@H]2CC[C@H](N3CCOCC3)CC2)c2c3c(sc2n1)CCC3 [Compound I-70, 12-N-[4-(morpholin-4-yl)cyclohexyl]-10-N-[4-(piperidin-4-yl)phenyl]-7-thia-9,11-diazatricyclo[6.4.0.0[2,6]]dodeca-1(8),2(6),9,11-tetraene-10,12-diamine hydrochloride]
